Experimental findings from patent US11382918B2, “Methods for treating Huntington's Disease” (PTC Therapeutics, Inc., priority 2017, dated 2022) are described below.

pIC50: −log10 of the molar value. Bounds are passed on as bounds.

As usually defined, the pIC50 is the negative decadic logarithm of the IC50, by convention in mol/L. Low values mean a large IC50, high ones a small IC50.

The subject of the experiment is Endogenous Huntingtin Protein (HTT). Put plainly: Endogenous Huntingtin Protein Assay (ELISA-based MSD electrochemiluminescence). Format: cell-based. As to conditions: Table 1. The gist of the method: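 HTT protein in lysates was measured by electrochemiluminescence on the MSD platform. Rabbit monoclonal 5656S followed by SULFO-TAG anti-rabbit antibody served for detection after overnight 4 °C capture with MAB2166 or the polyglutamine-directed MW1 antibody.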
A general note: An ELISA detects its analyte on a solid surface through an enzyme-linked reagent.
In the case of `Cc1cn2cc(-c3cc(=O)n4cc(C5CCN(C6CCC6)CC5)ncc4n3)ccc2n1` [compound 628, 7-(1-cyclobutylpiperidin-4-yl)-2-(2-methylimidazo[1,2-a]pyridin-6-yl)-4H-pyrazino[1,2-a]pyrimidin-4-one], the pIC50 is 4.48 to 5.52.
On to `CCc1nc(C)cn2nc(-c3cc(=O)n4cc(N5CCN(CCO)[C@H](C)C5)ccc4n3)cc12` [compound 632, 2-(4-ethyl-6-methylpyrazolo[1,5-a]pyrazin-2-yl)-7-[(3R)-4-(2-hydroxyethyl)-3-methylpiperazin-1-yl]-4H-pyrido[1,2-a]pyrimidin-4-one], for which the pIC50 was 5.52 to 6.00.
To `CCc1nc(C)cn2nc(-c3cc(=O)n4cc(N5C[C@@H](C)N[C@@H](C)C5)ccc4n3)cc12` [compound 633, 7-[(3R,5S)-3,5-dimethylpiperazin-1-yl]-2-(4-ethyl-6-methylpyrazolo[1,5-a]pyrazin-2-yl)-4H-pyrido[1,2-a]pyrimidin-4-one] belongs 4.48 to 5.52; to `CCc1nc(C)cn2nc(-c3cc(=O)n4cc(N5CCN[C@@H](C)C5)ccc4n3)cc12` [compound 635, 2-(4-ethyl-6-methylpyrazolo[1,5-a]pyrazin-2-yl)-7-[(3S)-3-methylpiperazin-1-yl]-4H-pyrido[1,2-a]pyrimidin-4-one], 5.52 to 6.00.
With `CCc1nc(C)cn2nc(-c3cc(=O)n4cc(N5CCCN(C)CC5)ccc4n3)cc12` [compound 636, 2-(4-ethyl-6-methylpyrazolo[1,5-a]pyrazin-2-yl)-7-(4-methyl-1,4-diazepan-1-yl)-4H-pyrido[1,2-a]pyrimidin-4-one], the pIC50 is 4.48 to 5.52.
On to `CCc1cc(-c2cc(=O)n3cc(N4CCNCC4)ccc3n2)cn2cc(C)nc12` [compound 637, 2-(8-ethyl-2-methylimidazo[1,2-a]pyridin-6-yl)-7-(piperazin-1-yl)-4H-pyrido[1,2-a]pyrimidin-4-one], for which the pIC50 was 6.00 to 6.30.
As to `CCc1cc(-c2cc(=O)n3cc(N4CCN[C@@H](C)C4)ccc3n2)cn2cc(C)nc12` [compound 639, 2-(8-ethyl-2-methylimidazo[1,2-a]pyridin-6-yl)-7-[(3S)-3-methylpiperazin-1-yl]-4H-pyrido[1,2-a]pyrimidin-4-one], the pIC50 is 4.48 to 5.52.
`Cc1cn2nc(-c3cc(=O)n4cc(C5CCN(C6CC6)CC5)ccc4n3)cc2c(C)n1` [compound 641, 7-(1-cyclopropylpiperidin-4-yl)-2-(4,6-dimethylpyrazolo[1,5-a]pyrazin-2-yl)-4H-pyrido[1,2-a]pyrimidin-4-one] had a pIC50 of 4.48 to 5.52.
The compound `CCc1cc(-c2cc(=O)n3cc(N4CCN(CCO)[C@H](C)C4)ccc3n2)cn2cc(C)nc12` [compound 649, 2-(8-ethyl-2-methylimidazo[1,2-a]pyridin-6-yl)-7-[(3R)-4-(2-hydroxyethyl)-3-methylpiperazin-1-yl]-4H-pyrido[1,2-a]pyrimidin-4-one] gave a pIC50 of 6.00 to 6.30.
In turn, `CCc1nc(C)cn2nc(-c3cc(=O)n4cc(C5CCNCC5)ncc4n3)cc12` [compound 653, 2-(4-ethyl-6-methylpyrazolo[1,5-a]pyrazin-2-yl)-7-(piperidin-4-yl)-4H-pyrazino[1,2-a]pyrimidin-4-one] gave a pIC50 above 7.00.
In turn, `CCc1nc(C)cn2nc(-c3cc(=O)n4cc(C5CCN(C)CC5)ncc4n3)cc12` [compound 654, 2-(4-ethyl-6-methylpyrazolo[1,5-a]pyrazin-2-yl)-7-(1-methylpiperidin-4-yl)-4H-pyrazino[1,2-a]pyrimidin-4-one] had a pIC50 above 7.00.
As for `CCc1nc(C)cn2nc(-c3cc(=O)n4cc(C5CCN(CC)CC5)ncc4n3)cc12` [compound 655, 2-(4-ethyl-6-methylpyrazolo[1,5-a]pyrazin-2-yl)-7-(1-ethylpiperidin-4-yl)-4H-pyrazino[1,2-a]pyrimidin-4-one], the figure is 6.30 to 7.00; as for `CCc1nc(C)cn2nc(-c3cc(=O)n4cc(C5CCNCC5)ccc4n3)cc12` [compound 656, 2-(4-ethyl-6-methylpyrazolo[1,5-a]pyrazin-2-yl)-7-(piperidin-4-yl)-4H-pyrido[1,2-a]pyrimidin-4-one], 6.30 to 7.00.
Compound `Cc1cn2nc(-c3cc(=O)n4cc(C5CCN(CCF)CC5)ccc4n3)cc2c(C)n1` [compound 662, 2-(4,6-dimethylpyrazolo[1,5-a]pyrazin-2-yl)-7-[1-(2-fluoroethyl)piperidin-4-yl]-4H-pyrido[1,2-a]pyrimidin-4-one] had a pIC50 of 6.00 to 6.30.
For the compound `CCc1nc(C)cn2nc(-c3cc(=O)n4cc(N5CCN(CCCF)CC5)ccc4n3)cc12` [compound 665, 2-(4-ethyl-6-methylpyrazolo[1,5-a]pyrazin-2-yl)-7-[4-(3-fluoropropyl)piperazin-1-yl]-4H-pyrido[1,2-a]pyrimidin-4-one], the pIC50 was 4.48 to 5.52.
`CCc1nc(C)cn2nc(-c3cc(=O)n4cc(N5CCN(CCCF)[C@H](C)C5)ccc4n3)cc12` [compound 667, 2-(4-ethyl-6-methylpyrazolo[1,5-a]pyrazin-2-yl)-7-[(3R)-4-(3-fluoropropyl)-3-methylpiperazin-1-yl]-4H-pyrido[1,2-a]pyrimidin-4-one] gave a pIC50 of 5.52 to 6.00.
As for `CCc1nc(C)cn2nc(-c3cc(=O)n4cc(C5CCN(CCF)CC5)ccc4n3)cc12` [compound 668, 2-(4-ethyl-6-methylpyrazolo[1,5-a]pyrazin-2-yl)-7-[1-(2-fluoroethyl)piperidin-4-yl]-4H-pyrido[1,2-a]pyrimidin-4-one], the figure is 6.00 to 6.30; as for `Cc1cn2nc(-c3cc(=O)n4cc(C5CCNCC5)cc(C)c4n3)cc2c(C)n1` [compound 671, 2-(4,6-dimethylpyrazolo[1,5-a]pyrazin-2-yl)-9-methyl-7-(piperidin-4-yl)-4H-pyrido[1,2-a]pyrimidin-4-one], 5.52 to 6.00; as for `Cc1cn2nc(-c3cc(=O)n4cc(N5CCN(CCO)[C@H](C)C5)cc(C)c4n3)cc2c(C)n1` [compound 673, 2-(4,6-dimethylpyrazolo[1,5-a]pyrazin-2-yl)-7-[(3R)-4-(2-hydroxyethyl)-3-methylpiperazin-1-yl]-9-methyl-4H-pyrido[1,2-a]pyrimidin-4-one], 4.48 to 5.52.
The compound `Cc1cn2cc(-c3cc(=O)n4cc(N5CCNCC5)ccc4n3)cc(CO)c2n1` [compound 674, 2-[8-(hydroxymethyl)-2-methylimidazo[1,2-a]pyridin-6-yl]-7-(piperazin-1-yl)-4H-pyrido[1,2-a]pyrimidin-4-one] gave a negative logarithm of the IC50 (pIC50) of 4.48 to 5.52.
Turning to `Cc1cn2cc(-c3cc(=O)n4cc(N5CCN(C)CC5)ccc4n3)cc(CO)c2n1` [compound 677, 2-[8-(hydroxymethyl)-2-methylimidazo[1,2-a]pyridin-6-yl]-7-(4-methylpiperazin-1-yl)-4H-pyrido[1,2-a]pyrimidin-4-one], the pIC50 is 4.48 to 5.52.
Take `CCc1nc(C)cn2nc(-c3cc(=O)n4cc(C5CCN(C(C)C)CC5)ccc4n3)cc12` [compound 679, 2-(4-ethyl-6-methylpyrazolo[1,5-a]pyrazin-2-yl)-7-[1-(propan-2-yl)piperidin-4-yl]-4H-pyrido[1,2-a]pyrimidin-4-one]: the pIC50 is 4.48 to 5.52.
The compound `Cc1cn2nc(-c3cc(=O)n4cc(N5CCNCC5)ccc4n3)cc2c(C2CC2)n1` [compound 683, 2-(4-cyclopropyl-6-methylpyrazolo[1,5-a]pyrazin-2-yl)-7-(piperazin-1-yl)-4H-pyrido[1,2-a]pyrimidin-4-one] showed a pIC50 of 4.48 to 5.52.
